From patent US9981950B2, “Triazoles as NR2B receptor inhibitors” (Janssen Pharmaceuticals, Inc., priority 2014, dated 2018)

These molecules were tested against cloned human NR1/NR2B ion channels (Homo sapiens (Human), UniProt Q05586+Q13224) (assay: HNR2BC: calcium influx assay on cloned human NR1/NR2B ion channels expressed in HEK cells). Conditions: HEK cells hNR1/NR2B, 100 μM glutamate + 100 μM glycine, 3 parameter plot.
Assay type: cell-based
Description: HNR2BC: Effects of Test Articles on Cloned Human NR1/NR2B Ion Channels Expressed in Mammalian Cells
The ability of test compounds to act as an antagonist of NR1/NR2B were evaluated with a calcium influx assay (Calcium 5 Assay Kit, Molecular Devices).
For the antagonist assessment, NR1/NR2B was activated with the positive control agonist (Mg^2+-free HBPS+100 μM glutamic acid+100 μM glycine). The effect of each test article to inhibit the signal was examined after agonist stimulation and compared to the positive control antagonist (MK-801).
A HEK cell line, stable transfected with hNR1/NR2B was used. This tetracycline inducible cell line is transfected with GRIN1 (GeneBank accession number NM 007327.2) and GRIN2B (GeneBank accession number NM_000834.3.). The cells were cultured in cell culture flasks with DMEM/F12 supplemented with 10% FCS, 1% PenStrep and a selection of additional antibiotics.
Forty-Eight (48) hours before the assay the cells were plated into 96-well black well, flat clear bottom microtiter plates at a density of 50000 cells/well. Twenty-Four (24) hours later the receptor expression was induced by the addition of 1 μg/ml tetracycline in the presence of 2 mM ketamine and 200 μM 7-CKA. After 24 h of receptor induction the plates were used for the assay.
The medium was removed and the cells were loaded with 200 μl loading buffer (Molecular Devices) in Mg2+-free HBPS containing 100 μM 7-CKA at 37° C. for one (1) hour.
The test compounds were then solubilized in 100% DMSO and diluted to yield eight (8) different concentrations in 100% DMSO. A 96 well drug plate was prepared by diluting with water and glycine/glutamate to a 5-fold of final test concentration. Fluorescence intensity of the cells in the plate was measured in a FlexStation using an excitation wavelength of 485 nm and an emission wavelength of 525 nm. Twenty (20) seconds after starting the recordings the compounds together with the agonists glycine (100 μM) and glutamate (100 μM) were added into the wells and the fluorescence measured for ninety (90) seconds in summary.
The IC50 values provided in the paragraph below were determined using a 3 parameter plot.

cloned human NR1/NR2B ion channels, sequence (Q13224 27-1484, other chains not shown): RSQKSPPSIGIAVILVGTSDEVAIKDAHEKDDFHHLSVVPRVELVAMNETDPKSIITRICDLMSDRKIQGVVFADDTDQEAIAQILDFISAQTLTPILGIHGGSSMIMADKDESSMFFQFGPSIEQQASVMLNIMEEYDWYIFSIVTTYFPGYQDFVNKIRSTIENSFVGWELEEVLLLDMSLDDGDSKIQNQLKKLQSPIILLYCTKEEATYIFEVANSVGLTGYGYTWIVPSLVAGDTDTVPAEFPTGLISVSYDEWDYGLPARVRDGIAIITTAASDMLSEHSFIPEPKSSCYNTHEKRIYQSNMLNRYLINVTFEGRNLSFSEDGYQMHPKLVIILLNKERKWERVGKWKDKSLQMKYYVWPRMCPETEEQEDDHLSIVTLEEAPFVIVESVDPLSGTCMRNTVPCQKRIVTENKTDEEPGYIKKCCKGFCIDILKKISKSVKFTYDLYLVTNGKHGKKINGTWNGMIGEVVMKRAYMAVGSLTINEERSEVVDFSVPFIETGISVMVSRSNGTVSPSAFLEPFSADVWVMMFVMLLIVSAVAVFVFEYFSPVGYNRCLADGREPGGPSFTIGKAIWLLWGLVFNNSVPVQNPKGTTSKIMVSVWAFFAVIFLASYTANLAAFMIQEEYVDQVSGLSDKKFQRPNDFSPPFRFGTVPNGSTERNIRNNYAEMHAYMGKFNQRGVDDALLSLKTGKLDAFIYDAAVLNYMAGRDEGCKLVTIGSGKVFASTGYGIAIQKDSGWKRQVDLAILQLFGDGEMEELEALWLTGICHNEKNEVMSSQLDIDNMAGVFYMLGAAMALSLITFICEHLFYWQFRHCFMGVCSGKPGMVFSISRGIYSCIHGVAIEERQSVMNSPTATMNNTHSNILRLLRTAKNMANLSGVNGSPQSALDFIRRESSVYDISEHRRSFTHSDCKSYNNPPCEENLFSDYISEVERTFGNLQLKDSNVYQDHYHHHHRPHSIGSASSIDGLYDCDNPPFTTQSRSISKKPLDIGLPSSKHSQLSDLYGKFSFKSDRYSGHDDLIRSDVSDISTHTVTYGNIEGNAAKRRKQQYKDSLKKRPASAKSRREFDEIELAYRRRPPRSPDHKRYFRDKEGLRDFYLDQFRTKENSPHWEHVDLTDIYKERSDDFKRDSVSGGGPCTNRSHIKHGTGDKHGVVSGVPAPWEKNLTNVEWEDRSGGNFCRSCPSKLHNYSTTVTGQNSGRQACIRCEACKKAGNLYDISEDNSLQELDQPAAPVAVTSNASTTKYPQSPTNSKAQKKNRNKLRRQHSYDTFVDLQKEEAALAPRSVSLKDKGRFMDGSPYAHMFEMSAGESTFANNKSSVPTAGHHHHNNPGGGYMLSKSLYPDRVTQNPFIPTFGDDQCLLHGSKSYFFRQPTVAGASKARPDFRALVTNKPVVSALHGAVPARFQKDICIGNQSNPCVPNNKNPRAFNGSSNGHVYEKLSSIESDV

IC50	Compound
17.5 µM	CC(C)c1nccn1Cc1cn(-c2ccc(Cl)cc2)nn1 [Example 23, 1-(4-Chloro-phenyl)-4-(2-isopropyl-imidazol-1-ylmethyl)-1H-[1,2,3]triazole]
3.79 µM	Cc1nccn1Cc1cn(-c2ccc(F)c(C(F)F)c2)nn1 [Example 81, 1-(3-Difluoromethyl-4-fluoro-1-phenyl)-4-(2-methyl-imidazol-1-ylmethyl)-1H-[1,2,3]triazole]
4.89 µM	Fc1ccc(-n2cc(Cn3ccnc3C3CC3)nn2)cc1C(F)F [Example 82, 4-(2-Cyclopropyl-imidazol-1-ylmethyl)-1-(3-difluoromethyl-4-fluoro-phenyl)-1H-[1,2,3]triazole]
0.41 µM	Cc1nccn1Cc1cn(-c2ccc(Cl)c(OC(F)F)c2)nn1 [Example 93, 1-(4-Chloro-3-difluoromethoxy-phenyl)-4-(2-methyl-imidazol-1-ylmethyl)-1H-[1,2,3]triazole]
1.65 µM	OCCc1nccn1Cc1cn(-c2ccc(F)c(OC(F)F)c2)nn1 [Example 101, 1-(3-Difluoromethoxy-4-fluoro-phenyl)-4-[2-(2-hydroxy-ethyl)-imidazol-1-ylmethyl]-1H-[1,2,3]triazole]
109 µM	Cn1nccc1Cc1cn(-c2ccc(F)c(Cl)c2)nn1 [Example 109, 1-(3-Chloro-4-fluoro-phenyl)-4-(2-methyl-2H-pyrazol-3-ylmethyl)-1H-[1,2,3]triazole]
0.84 µM	Nc1nccn1Cc1cn(-c2ccc(Cl)c(C(F)F)c2)nn1 [Example 113A, 4-(2-amino-imidazol-1-ylmethyl)-1-(4-chloro-3-difluoromethyl-phenyl)-1H-[1,2,3]triazole]
0.66 µM	Nc1nccn1Cc1cn(-c2ccc(F)c(C(F)F)c2)nn1 [Example 113B, 4-(2-amino-imidazol-1-ylmethyl)-1-(4-fluoro-3-difluoromethyl-phenyl)-1H-[1,2,3]triazole]
2.34 µM	CC(F)(F)c1cc(-n2cc(Cn3ccnc3N)nn2)ccc1F [Example 114]

Compound	IC50
CC(C)c1nccn1Cc1cn(-c2ccc(F)c(C(F)F)c2)nn1 [Example 84, 1-(3-Difluoromethyl-4-fluoro-phenyl)-4-(2-isopropyl-imidazol-1-ylmethyl)-1H-[1,2,3]triazole]	4.2 µM

Each molecule was assayed on Male NMRI mice (assay: Forced swim test in mice). Conditions: p.o. 30 minutes before the test.
Assay type: in vivo
Description: The method, which detects antidepressant activity, follows that described by Porsolt et al (Arch. Int. Pharmacodyn., 229, 327-336, 1977), which is incorporated by reference herein in its entirety.
Mice forced to swim in a situation from which they cannot escape rapidly become immobile. Antidepressants decrease the duration of immobility.
Male NMRI mice (Janvier, France), weighing 20-30 g, were individually placed in a cylinder (height=24 cm; diameter=13 cm) containing 10 cm water (22° C.) from which they cannot escape.
The mice were placed in the water for 6 minutes and the duration of immobility during the last 4 minutes was measured. The latency to the first bout of immobility was also recorded starting from the beginning of the test. 10 mice were studied per group. The test substance was administered p.o. 30 minutes before the test and compared with vehicle control group. The test was performed blind.

Compound	Minimum effective dose (mg/kg p.o.)
Fc1ccc(-n2cc(Cn3ccnc3C3CC3)nn2)cc1C(F)F [Example 82, 4-(2-Cyclopropyl-imidazol-1-ylmethyl)-1-(3-difluoromethyl-4-fluoro-phenyl)-1H-[1,2,3]triazole]	60 mg/kg
OCCc1nccn1Cc1cn(-c2ccc(F)c(OC(F)F)c2)nn1 [Example 101, 1-(3-Difluoromethoxy-4-fluoro-phenyl)-4-[2-(2-hydroxy-ethyl)-imidazol-1-ylmethyl]-1H-[1,2,3]triazole]	>30 mg/kg
